{"source": "DBAASP", "assay_in_all_cases": "≥ marks a high value that may be exact or a test limit, other limits are often not marked, values filed in µg/mL are converted to µM", "key": {"[1]": {"test_system": "Bacillus cereus NCDC 0240"}, "[2]": {"test_system": "Escherichia coli MTCC 0723"}, "[3]": {"test_system": "Salmonella enterica subsp. enterica serovar Typhimurium ATCC 14028"}, "[4]": {"test_system": "Listeria monocytogenes ATCC 19111"}, "[5]": {"test_system": "Acinetobacter johnsonii NCDC 0072"}, "[6]": {"test_system": "Pseudomonas aeruginosa ATCC 27853"}, "[7]": {"test_system": "Staphylococcus aureus NCDC 0111"}, "[8]": {"test_system": "Pseudomonas aeruginosa NCDC 0105"}, "[9]": {"test_system": "Staphylococcus aureus ATCC 29213"}, "[10]": {"test_system": "Candida albicans FRR 5580"}, "[11]": {"test_system": "Pseudomonas aeruginosa ATCC 9027"}, "[12]": {"test_system": "Escherichia coli ATCC 25922"}, "[13]": {"test_system": "Bacillus megaterium"}, "[14]": {"test_system": "Candida albicans ATCC 2002"}, "[15]": {"test_system": "Staphylococcus aureus ATCC 2592"}, "[16]": {"test_system": "Pseudomonas aeruginosa CMCCB 10104"}, "[17]": {"test_system": "Klebsiella pneumoniae"}, "[18]": {"test_system": "Shigella dysenteriae"}, "[19]": {"test_system": "Pseudomonas aeruginosa CGMCC 1.50"}, "[20]": {"test_system": "Candida glabrata 090902"}, "[21]": {"test_system": "Enterococcus faecium 091299"}, "[22]": {"test_system": "Enterococcus faecalis 981"}, "[23]": {"test_system": "Nocardia asteroides 201118"}, "[24]": {"test_system": "Enterobacter cloacae CGMCC 1.57"}, "[25]": {"test_system": "Klebsiella pneumoniae 08040724"}, "[26]": {"test_system": "Psychrobacter faecalis X29"}, "[27]": {"test_system": "Escherichia coli 44102"}, "[28]": {"test_system": "Pseudomonas aeruginosa A62"}, "[29]": {"test_system": "Bacillus subtilis A47"}, "[30]": {"test_system": "Staphylococcus aureus 22401"}, "[31]": {"test_system": "Klebsiella pneumoniae DM4299"}, "[32]": {"test_system": "Pseudomonas aeruginosa DM23155"}, "[33]": {"test_system": "Porphyromonas gingivalis ATCC 53978"}, "[34]": {"test_system": "Porphyromonas gingivalis ATCC 33277"}, "[35]": {"test_system": "Staphylococcus aureus 68 HER 1049"}, "[36]": {"test_system": "Escherichia coli K12 MG1655"}}, "data": [{"smiles": "CC[C@H](C)[C@H](NC(=O)[C@H](CO)NC(=O)[C@H](Cc1c[nH]c2ccccc12)NC(=O)[C@@H]1CCCN1C(=O)[C@@H](NC(=O)[C@H](C)N)[C@@H](C)CC)C(=O)N[C@@H](Cc1c[nH]c2ccccc12)C(=O)N[C@@H](Cc1c[nH]c2ccccc12)C(=O)N[C@@H](CCCN=C(N)N)C(=O)N[C@@H](CC(C)C)C(=O)N[C@@H](CC(C)C)C(=O)N[C@@H](Cc1ccccc1)C(=O)N[C@@H](CCCCN)C(=O)NCC(=O)O", "note": "[AIPWSIWWRLLFKG]", "values": [{"measurement": "MIC", "setting": "[1]", "result": "≥ 100", "unit": "µM"}, {"measurement": "MIC", "setting": "[2]", "result": "≥ 200", "unit": "µM"}, {"measurement": "MIC", "setting": "[3]", "result": 0.2, "unit": "µM"}, {"measurement": "MIC", "setting": "[4]", "result": 3, "unit": "µM"}, {"measurement": "MIC", "setting": "[5]", "result": "≥ 200", "unit": "µM"}, {"measurement": "MIC", "setting": "[6]", "result": 100, "unit": "µM"}, {"measurement": "MIC", "setting": "[7]", "result": 6, "unit": "µM"}, {"measurement": "MIC", "setting": "[8]", "result": "≥ 50", "unit": "µM"}, {"measurement": "MIC", "setting": "[9]", "result": 6, "unit": "µM"}]}, {"smiles": "CC(C)[C@H](NC(=O)[C@@H]1CCCN1C(=O)[C@@H](N)Cc1ccccc1)C(=O)N[C@H](C(=O)N[C@@H](Cc1c[nH]c2ccccc12)C(=O)N[C@@H](CCCN=C(N)N)C(=O)N[C@@H](Cc1c[nH]c2ccccc12)C(=O)N[C@@H](Cc1c[nH]c2ccccc12)C(=O)N[C@@H](CCCCN)C(=O)N[C@@H](Cc1c[nH]c2ccccc12)C(=O)N[C@@H](Cc1c[nH]c2ccccc12)C(=O)N[C@@H](CCCCN)C(=O)NCC(=O)O)[C@@H](C)O", "note": "[FPVTWRWWKWWKG]", "values": [{"measurement": "MIC", "setting": "[10]", "result": "≥ 134", "unit": "µM"}, {"measurement": "MIC", "setting": "[11]", "result": 67.1, "unit": "µM"}]}, {"smiles": "CC[C@H](C)[C@H](NC(=O)CN)C(=O)NCC(=O)N[C@H](C(=O)N[C@@H](CCCCN)C(=O)N[C@H](C(=O)N[C@@H](CC(C)C)C(=O)NCC(=O)NCC(=O)N[C@H](C(=O)N[C@@H](CCCCN)C(=O)N[C@H](C(=O)N[C@@H](C)C(=O)N[C@@H](CC(C)C)C(=O)N[C@@H](CCCCN)C(=O)NCC(=O)N[C@@H](C)C(=O)N[C@@H](CC(C)C)C(=O)N[C@@H](CCCCN)C(=O)N[C@@H](CCC(=O)O)C(=O)N[C@@H](CC(C)C)C(=O)N[C@@H](C)C(=O)N[C@@H](CO)C(=O)N[C@H](C(=O)N[C@@H](Cc1ccc(O)cc1)C(=O)N[C@H](C(=O)N[C@@H](CC(N)=O)C(N)=O)C(C)C)[C@@H](C)O)[C@@H](C)O)C(C)C)[C@@H](C)CC)[C@@H](C)O", "note": "[GIGTKILGGVKTALKGALKELASTYVN]", "values": [{"measurement": "MIC", "setting": "[12]", "result": 7.21, "unit": "µM"}, {"measurement": "MIC", "setting": "[13]", "result": 7.21, "unit": "µM"}, {"measurement": "MIC", "setting": "[14]", "result": 1.11, "unit": "µM"}, {"measurement": "MIC", "setting": "[15]", "result": 7.21, "unit": "µM"}, {"measurement": "MIC", "setting": "[16]", "result": 7.21, "unit": "µM"}, {"measurement": "MIC", "setting": "[17]", "result": 3.33, "unit": "µM"}, {"measurement": "MIC", "setting": "[18]", "result": 0.999, "unit": "µM"}]}, {"smiles": "CC[C@H](C)[C@H](NC(=O)CN)C(=O)N[C@@H](CC(C)C)C(=O)N[C@@H](CC(=O)O)C(=O)N[C@H](C(=O)N[C@@H](CC(C)C)C(=O)N[C@@H](CCCCN)C(=O)N[C@@H](CCC(N)=O)C(=O)N[C@@H](CC(C)C)C(=O)NCC(=O)N[C@@H](CCCCN)C(=O)N[C@@H](C)C(=O)N[C@@H](C)C(=O)N[C@@H](C)C(=O)N[C@@H](CCC(N)=O)C(=O)N[C@@H](CO)C(=O)N[C@@H](CC(C)C)C(=O)N[C@@H](CC(C)C)C(=O)N[C@@H](CO)C(=O)N[C@@H](CCCCN)C(=O)N[C@@H](C)C(=O)N[C@@H](C)C(=O)N[C@H]1CSSC[C@@H](C(=O)O)NC(=O)[C@H]([C@@H](C)O)NC(=O)[C@H](CCCCN)NC(=O)[C@H](C)NC(=O)[C@H](CC(C)C)NC(=O)[C@H](CCCCN)NC1=O)[C@@H](C)O", "note": "[GILDTLKQLGKAAAQSLLSKAACKLAKTC]", "values": [{"measurement": "MIC", "setting": "[19]", "result": "≥ 50", "unit": "µM"}, {"measurement": "MIC", "setting": "[12]", "result": 50, "unit": "µM"}, {"measurement": "MIC", "setting": "[20]", "result": "≥ 50", "unit": "µM"}, {"measurement": "MIC", "setting": "[21]", "result": 6.3, "unit": "µM"}, {"measurement": "MIC", "setting": "[22]", "result": "≥ 50", "unit": "µM"}, {"measurement": "MIC", "setting": "[23]", "result": 6.3, "unit": "µM"}, {"measurement": "MIC", "setting": "[24]", "result": "≥ 50", "unit": "µM"}, {"measurement": "MIC", "setting": "[25]", "result": "≥ 100", "unit": "µM"}, {"measurement": "MIC", "setting": "[26]", "result": 3.1, "unit": "µM"}]}, {"smiles": "CC[C@H](C)[C@H](N)C(=O)N[C@@H](CC(C)C)C(=O)N1CCC[C@H]1C(=O)N[C@H](C(=O)N[C@H](C(=O)NCC(=O)N[C@@H](CCCCN)C(=O)N[C@H](C(=O)N[C@@H](CC(C)C)C(=O)N[C@@H](CO)C(=O)N[C@H](C(=O)N[C@H](C(=O)N[C@@H](Cc1ccccc1)C(=O)NCC(=O)N[C@@H](CCCCN)C(=O)O)[C@@H](C)CC)[C@@H](C)O)[C@@H](C)CC)[C@@H](C)CC)[C@@H](C)CC", "note": "[ILPIIGKILSTIFGK]", "values": [{"measurement": "MIC", "setting": "[27]", "result": "≥ 50", "unit": "µM"}, {"measurement": "MIC", "setting": "[28]", "result": 12.5, "unit": "µM"}, {"measurement": "MIC", "setting": "[29]", "result": 25, "unit": "µM"}, {"measurement": "MIC", "setting": "[30]", "result": 6.25, "unit": "µM"}]}, {"smiles": "CC(=O)N[C@@H](CCCN=C(N)N)C(=O)NCC(=O)N[C@@H](CCCN=C(N)N)C(=O)N[C@@H](CCCCN)C(=O)NCC(=O)NCC(=O)N[C@@H](CCCN=C(N)N)C(=O)N[C@@H](CCCN=C(N)N)C(=O)N[C@@H](CCCCN)C(=O)N[C@@H](CCCCN)C(=O)O", "note": "[RGRKGGRRKK]", "values": [{"measurement": "MIC", "setting": "[31]", "result": 3, "unit": "µM"}, {"measurement": "MIC", "setting": "[12]", "result": 1.5, "unit": "µM"}, {"measurement": "MIC", "setting": "[32]", "result": 6, "unit": "µM"}]}, {"smiles": "CC[C@H](C)[C@H](NC(=O)CNC(=O)[C@H](CCC(=O)O)NC(=O)CNC(=O)[C@H](C)NC(=O)CNC(=O)[C@H](Cc1cnc[nH]1)NC(=O)[C@@H]1CCCN1C(=O)[C@@H](N)CCCN=C(N)N)C(=O)N[C@@H](CC(=O)O)C(=O)N[C@@H](CCCN=C(N)N)C(=O)N[C@H](C(=O)N1CCC[C@H]1C(=O)N[C@@H](C)C(=O)NCC(=O)N1CCC[C@H]1C(=O)N[C@@H](CO)C(=O)N1CCC[C@H]1C(=O)N[C@@H](CO)C(=O)N[C@@H](CCC(=O)O)C(=O)N[C@H](C(=O)NCC(=O)N[C@@H](CC(C)C)C(=O)N[C@@H](C)C(=O)N[C@H](C(=O)N1CCC[C@H]1C(=O)N[C@@H](CO)C(=O)NCC(=O)N[C@@H](CCCCN)C(=O)O)[C@@H](C)CC)C(C)C)C(C)C", "note": "[RPHGAGEGIDRVPAGPSPSEVGLAIPSGK]", "values": [{"measurement": "MIC", "setting": "[33]", "result": 1.7, "unit": "µM"}, {"measurement": "MIC", "setting": "[34]", "result": 1.7, "unit": "µM"}]}, {"smiles": "CC[C@H](C)[C@H](NC(=O)[C@H](CCCN=C(N)N)NC(=O)[C@H](CCCN=C(N)N)NC(=O)[C@H](CC(C)C)NC(=O)[C@H](CCCCN)NC(=O)[C@H](CCCCN)NC(=O)[C@H](Cc1c[nH]c2ccccc12)NC(=O)[C@H](CCCN=C(N)N)NC(=O)[C@H](CCCCN)NC(=O)[C@H](Cc1c[nH]c2ccccc12)NC(=O)[C@@H](N)Cc1c[nH]c2ccccc12)C(=O)N[C@@H](Cc1ccccc1)C(=O)N[C@@H](CC(C)C)C(=O)N[C@@H](CCSC)C(=O)N[C@@H](CC(C)C)C(=O)O", "note": "[WWKRWKKLRRIFLML]", "values": [{"measurement": "MIC", "setting": "[35]", "result": 1.85, "unit": "µM"}, {"measurement": "MIC", "setting": "[36]", "result": 1.85, "unit": "µM"}]}]}
